Test results reported in ChEMBL document CHEMBL2073808, “P-glycoprotein inhibition by the multidrug resistance-reversing agent MS-209 enhances bioavailability and antitumor efficacy of orally administered paclitaxel” (Cancer Chemother Pharmacol, 2002).

Target: ATP-dependent translocase ABCB1 (Homo sapiens, UniProt P08183)
Assay: TP_TRANSPORTER: inhibition of Taxol transepithelial transport (basal to apical) in Caco-2 cells
Assay type: functional, cell-based

Sequence of ATP-dependent translocase ABCB1 (P08183 whole entry): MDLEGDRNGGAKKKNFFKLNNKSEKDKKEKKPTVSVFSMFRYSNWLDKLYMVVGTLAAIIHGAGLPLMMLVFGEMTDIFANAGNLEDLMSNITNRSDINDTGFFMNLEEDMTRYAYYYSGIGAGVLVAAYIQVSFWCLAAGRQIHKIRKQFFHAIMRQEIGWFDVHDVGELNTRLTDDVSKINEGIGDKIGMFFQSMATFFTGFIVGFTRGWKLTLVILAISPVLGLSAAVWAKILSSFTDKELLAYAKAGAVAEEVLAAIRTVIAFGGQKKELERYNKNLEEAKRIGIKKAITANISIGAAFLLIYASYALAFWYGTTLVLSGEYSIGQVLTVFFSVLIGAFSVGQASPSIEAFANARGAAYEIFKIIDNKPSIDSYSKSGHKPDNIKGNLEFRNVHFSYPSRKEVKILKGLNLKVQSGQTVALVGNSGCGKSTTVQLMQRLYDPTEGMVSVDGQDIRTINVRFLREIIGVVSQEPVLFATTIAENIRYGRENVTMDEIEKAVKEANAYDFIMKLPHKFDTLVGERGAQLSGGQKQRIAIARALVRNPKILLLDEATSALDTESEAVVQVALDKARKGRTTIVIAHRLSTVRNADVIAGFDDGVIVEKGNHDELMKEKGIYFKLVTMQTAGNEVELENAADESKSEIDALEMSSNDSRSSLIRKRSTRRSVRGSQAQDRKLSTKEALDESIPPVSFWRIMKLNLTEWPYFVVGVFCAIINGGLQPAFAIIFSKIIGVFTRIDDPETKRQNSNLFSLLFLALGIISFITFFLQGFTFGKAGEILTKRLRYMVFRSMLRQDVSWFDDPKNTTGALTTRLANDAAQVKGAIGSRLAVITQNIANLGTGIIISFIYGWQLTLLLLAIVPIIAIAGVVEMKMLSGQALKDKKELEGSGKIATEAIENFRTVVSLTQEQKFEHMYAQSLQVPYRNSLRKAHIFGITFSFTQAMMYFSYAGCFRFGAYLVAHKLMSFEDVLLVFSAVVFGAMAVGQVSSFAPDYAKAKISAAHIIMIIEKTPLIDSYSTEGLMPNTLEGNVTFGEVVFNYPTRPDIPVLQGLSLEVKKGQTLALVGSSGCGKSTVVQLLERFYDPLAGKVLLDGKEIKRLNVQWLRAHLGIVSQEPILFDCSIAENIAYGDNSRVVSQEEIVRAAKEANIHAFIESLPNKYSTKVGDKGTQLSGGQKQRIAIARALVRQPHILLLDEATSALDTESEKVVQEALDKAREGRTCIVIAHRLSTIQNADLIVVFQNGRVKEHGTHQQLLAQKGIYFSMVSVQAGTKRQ

## O=C(C(c1ccccc1)c1ccccc1)N1CCN(C[C@@H](O)COc2cccc3ncccc23)CC1
  Ki: 400 nM
